What was measured:
Format in all cases: biochemical
[1] = system: GABA-AT; experiment: Time-dependent inhibition of GABA-AT; details: conclusion statement
From the text: Time-dependent inhibition of both GABA-AT and OAT were explored with racemic 6 (FIGS. 4 and 5). […] Racemic Vince lactam was used for the aforementioned biological assays.

[2] = biological target: T1, hOAT (Homo sapiens, UniProt P04181); experiment: Time-dependent inactivation of hOAT; details: enantiopure compound
T1 sequence (P04181 36-439 limits assumed): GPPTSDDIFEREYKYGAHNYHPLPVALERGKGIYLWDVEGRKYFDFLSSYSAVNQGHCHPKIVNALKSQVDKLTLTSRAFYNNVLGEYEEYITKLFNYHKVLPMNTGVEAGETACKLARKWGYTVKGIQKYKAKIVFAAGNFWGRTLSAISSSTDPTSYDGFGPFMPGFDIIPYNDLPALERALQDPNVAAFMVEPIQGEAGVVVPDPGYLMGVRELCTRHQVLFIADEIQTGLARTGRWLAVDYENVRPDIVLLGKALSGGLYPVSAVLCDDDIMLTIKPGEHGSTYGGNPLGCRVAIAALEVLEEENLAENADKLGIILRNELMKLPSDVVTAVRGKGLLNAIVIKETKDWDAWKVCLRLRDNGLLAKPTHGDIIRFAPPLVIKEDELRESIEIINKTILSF

[3] = biological target: T1, hOAT; experiment: Turnover number and partition ratio by titrating hOAT with varying equivalents of inactivator
Protocol: The turnover number and partition ratio of 6 were determined by titrating a known amount of hOAT with varying equivalents of inactivator (FIG. 12). The linear relationship of the remaining enzymatic activity was extrapolated to yield the number of equivalents of 6 required to inactivate the enzyme completely. From this we determined the turnover number of 6 to be 8.5 equivalent and the partition ratio to be 7.5. Based on our understanding of the mechanism, we believe that the turnover number may indicate that the second deprotonation is slow, which would allow the ketimine time to hydrolyze in a higher percentage than if the second deprotonation occurred rapidly.

[4] = biological target: T1, hOAT; experiment: Dialysis of hOAT inactivated by compound; details: hOAT dialyzed at 5° C. for 72 hours
Protocol: Samples of hOAT that had been inactivated by varying equivalents of 6 were dialyzed at 5° C. for 72 hours. At 4-, 12-, 24-, 48-, and 72-hour time points, aliquots were taken and the activity of the hOAT was measured.

kinact/KI [2]: 2.6 M⁻¹ s⁻¹ | partition ratio [3]: 7.5 | turnover number ([3]; extrapolated from linear relationship of remaining enzymatic activity): 8.5 equivalent | enzymatic activity recovered after dialysis [4]: No enzymatic activity was recovered
SMILES: N[C@@H]1CC2C(F)(F)[C@@]2(C(=O)O)C1 (stereo partly drawn) [compound 6, (1S,3R)-3-amino-6,6-difluorobicyclo[3.1.0]hexane-1-carboxylic acid]
activity in GABA-AT [1]: modest activity
